Source: patent US11000033B2, “Ketone or oxime compound, and herbicide” (NISSAN CHEMICAL CORPORATION, priority 2014, dated 2021)

Columns and labels:
Assay type in all cases: in vivo
Galium spurium = assay: Test Example 4: herbicidal effect by soil treatment (symbol Q)
Description: Herbicidal Effect Test by Soil Treatment
Sterilized diluvial soil was placed in a plastic box having a length of 21 cm, a width of 13 cm, and a depth of 7 cm. Each of the seeds of Digitaria ciliaris, Setaria viridis, Echinochloa crus-galli var. crus-galli, Avena fatua, Alopecurus myosuroides, Lolium multiflorum Lam., Apera spica-venti, Abutilon theophrasti, Amaranthus retroflexus, Chenopodium album, Stellaria media, Galium spurium, Veronica persica, corn, soybean, rice, wheat, beet, and rapeseed was sowed in a spot-like manner and was covered with the soil of a thickness of about 1.5 cm. Subsequently, the emulsion agent of the compound present invention prepared in accordance with Formulation Example 2 was diluted with water so as to be a predetermined herbicide amount and the diluted emulsion agent was uniformly applied to the surface of the soil with a small-size spray. The plastic box was placed in a greenhouse of 25° C. to 30° C. to grow plant. 3 weeks later from the herbicide application, the effect to each plant was investigated in accordance with the criteria of Test Example 1.

Amaranthus retroflexus = assay: Test Example 5: herbicidal effect by foliage application, plastic box (symbol N); details: 320 g/ha, 3 weeks after application
Procedure, shortened: (§1)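 Visual herbicidal score, taken three weeks post-application, of seedlings sprayed on the foliage with water-diluted emulsion at a predetermined amount; plants were 14 days old, greenhouse-raised at 25° C. to 30° C.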

[1] = tested on: Echinochloa oryzacola Vasing.; assay: Test Example 1: herbicidal activity, application before weed generation in submerged conditions (symbol A); details: application herbicide amount 320 g/ha
Procedure, shortened: (§2)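 Ratings (5: ≥90%, near complete withering; 4: 70–<90%; 3: 40–<70%; 2: 20–<40%; 1: 5–<20%; 0: ≤5%) were assigned 3 weeks after the diluted emulsion was applied to the water surface of freshly sown, submerged pots.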

rice plant = assay: Test Example 5: effect on crop by foliage application, plastic box (symbol b); details: 320 g/ha, 3 weeks after application
Procedure, shortened: (§3)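 Crop seed is sown alongside grass and broadleaf weed species in spots in sterilized diluvial soil, then covered to a depth of about 1.5 cm. Plants grow in a greenhouse kept at 25° C. to 30° C.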

Alopecurus myosuroides = assay: Test Example 5: herbicidal effect by foliage application, plastic box (symbol J); details: 320 g/ha, 3 weeks after application
Procedure, shortened: as §1

[2] = tested on: Echinochloa oryzacola Vasing.; assay: Test Example 2: herbicidal activity, application during weed generation in submerged conditions (symbol A); details: Table 23; application herbicide amount 320 g/ha; grade 0-5 by criteria of Test Example 1
Procedure, shortened: (§4)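 Weeds emerging under flooded conditions were treated with compound formulated as an emulsion and diluted with water to the intended herbicide amount, poured onto the surface of 4 cm standing water. Seeds had been co-sown in alluvial soil; plants grew at 25° C. to 30° C. and were assessed after 3 weeks.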

wheat = assay: Test Example 4: effect on crop by soil treatment (symbol e); details: for e: wheat, effect grade on crop: 320 g/ha
Procedure, shortened: (§5)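 Greenhouse culture at 25° C. to 30° C. followed sowing of seed in spots on sterilized diluvial soil with a soil cover close to 1.5 cm thick.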

Scirpus juncoides = assay: Test Example 2: herbicidal activity, application during weed generation in submerged conditions (symbol B); details: Table 23; application herbicide amount 320 g/ha; grade 0-5 by criteria of Test Example 1
Procedure, shortened: as §4

Monochoria vaginalis [3] = assay: Test Example 2: herbicidal activity, application during weed generation in submerged conditions (symbol C); details: Table 23; application herbicide amount 320 g/ha; grade 0-5 by criteria of Test Example 1
Procedure, shortened: as §4

beet [4] = assay: Test Example 5: effect on crop by foliage application, plastic box (symbol f); details: 320 g/ha, 3 weeks after application
Procedure, shortened: as §3

corn = assay: Test Example 4: effect on crop by soil treatment (symbol c); details: for c: corn, effect grade on crop: 320 g/ha
Procedure, shortened: as §5

Abutilon theophrasti = assay: Test Example 4: herbicidal effect by soil treatment (symbol M)
Procedure, shortened: (§6)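 Seeds were sown in sterilized diluvial soil, covered with about 1.5 cm of soil, and the soil surface was sprayed with a water-diluted emulsion of the compound at a predetermined rate. Plants grew in a greenhouse at 25° C. to 30° C.; effects were scored visually 3 weeks after application.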

Setaria viridis = assay: Test Example 4: herbicidal effect by soil treatment (symbol G)
Procedure, shortened: as §6

Monochoria vaginalis [5] = assay: Test Example 1: herbicidal activity, application before weed generation in submerged conditions (symbol C); details: application herbicide amount 320 g/ha
Procedure, shortened: as §2

beet [6] = assay: Test Example 4: effect on crop by soil treatment (symbol f); details: for f: beet, effect grade on crop: 320 g/ha
Procedure, shortened: as §5

Lolium multiflorum Lam. = assay: Test Example 5: herbicidal effect by foliage application, plastic box (symbol K); details: 320 g/ha, 3 weeks after application
Procedure, shortened: as §1

[7] = application herbicide amount 320 g/ha

Compound	N: Amaranthus retroflexus, herbicidal effect grade (Amaranthus retroflexus)	A (Echinochloa oryzacola Vasing.) herbicidal effect grade [1]	b: directly sowed rice plant, effect on crop grade (rice plant)	J: Alopecurus myosuroides, herbicidal effect grade (Alopecurus myosuroides)	Herbicidal effect grade, A: Echinochloa oryzacola Vasing. [2]	Herbicidal effect grade, B: Scirpus juncoides (Scirpus juncoides)	Herbicidal effect grade, C: Monochoria vaginalis (Monochoria vaginalis [3])	f: beet, effect on crop grade (beet [4])	C (Monochoria vaginalis) herbicidal effect grade (Monochoria vaginalis [5])	K: Lolium multiflorum Lam., herbicidal effect grade (Lolium multiflorum Lam.)	Q: Galium spurium, herbicidal effect grade (Galium spurium; 320 g/ha)	N: Amaranthus retroflexus, herbicidal effect (criteria 0-5) (Amaranthus retroflexus)	Herbicidal effect grade, A: Echinochloa oryzacola Vasing. [1]	b: directly sowed rice plant, effect on crop (criteria 0-5) (rice plant)	J: Alopecurus myosuroides, herbicidal effect (criteria 0-5) (Alopecurus myosuroides)	e: wheat, effect grade on crop (wheat)	f: beet, effect on crop (criteria 0-5) (beet [4])	c: corn, effect grade on crop (corn)	M: Abutilon theophrasti, herbicidal effect grade (Abutilon theophrasti; 320 g/ha)	G: Setaria viridis, herbicidal effect grade (Setaria viridis; 320 g/ha)	other results
CON=C(CC1CC(OC(=O)C(C)(C)C)=C(c2c(C)cc(C)cc2OC)C1=O)C1CC1 (mixture of isomers) [13-006]	3 (Herbicidal ratio of 40% or higher and lower than 70%)	5 (Herbicidal ratio of 90% or more (almost completely withered))	5 (Herbicidal ratio of 90% or more (almost completely withered))	5 (Herbicidal ratio of 90% or more (almost completely withered))	5 (Herbicidal ratio of 90% or more (almost completely withered))	3 (Herbicidal ratio of 40% or higher and lower than 70%)	4 (Herbicidal ratio of 70% or higher and lower than 90%)	3 (Herbicidal ratio of 40% or higher and lower than 70%)	4 (Herbicidal ratio of 70% or higher and lower than 90%)	5 (Herbicidal ratio of 90% or more (almost completely withered))											Q: Galium spurium, herbicidal effect grade (Galium spurium; [7]): 0 (Herbicidal ratio of 5% or lower (almost no effect)); e: wheat, effect on crop grade (wheat; [7]): 4 (Herbicidal ratio of 70% or higher and lower than 90%); c: corn, effect on crop grade (corn; [7]): 1 (Herbicidal ratio of 5% or higher and lower than 20%); M: Abutilon theophrasti, herbicidal effect grade (Abutilon theophrasti; [7]): 5 (Herbicidal ratio of 90% or more (almost completely withered)); G: Setaria viridis, herbicidal effect grade (Setaria viridis; [7]): 5 (Herbicidal ratio of 90% or more (almost completely withered)); f: beet, effect on crop grade (beet [6]; [7]): 0 (Herbicidal ratio of 5% or lower (almost no effect))
Cc1cc(Br)cc(C)c1C1=C(O)CC(CC(=NOCC(F)(F)F)C2CC2)C1=O (stereo not shown) [9-009]	0 (Herbicidal ratio of 5% or lower (almost no effect))	4 (Herbicidal ratio of 70% or higher and lower than 90%)	5 (Herbicidal ratio of 90% or more (almost completely withered))	4 (Herbicidal ratio of 70% or higher and lower than 90%)	2 (Herbicidal ratio of 20% or higher and lower than 40%)	0 (Herbicidal ratio of 5% or lower (almost no effect))	0 (Herbicidal ratio of 5% or lower (almost no effect))	0 (Herbicidal ratio of 5% or lower (almost no effect))	0 (Herbicidal ratio of 5% or lower (almost no effect))	5 (Herbicidal ratio of 90% or more (almost completely withered))											Herbicidal effect grade, Q: Galium spurium (Galium spurium; [7]): 0 (Herbicidal ratio of 5% or lower (almost no effect)); Effect on crop grade, e: wheat (wheat; [7]): 0 (Herbicidal ratio of 5% or lower (almost no effect)); Effect on crop grade, c: corn (corn; [7]): 0 (Herbicidal ratio of 5% or lower (almost no effect)); Herbicidal effect grade, M: Abutilon theophrasti (Abutilon theophrasti; [7]): 0 (Herbicidal ratio of 5% or lower (almost no effect)); Herbicidal effect grade, G: Setaria viridis (Setaria viridis; [7]): 1 (Herbicidal ratio of 5% or higher and lower than 20%); Effect on crop grade, f: beet (beet [6]; [7]): 0 (Herbicidal ratio of 5% or lower (almost no effect))
CON=C(C)CC1CC(OC(=O)N2CCOCC2)=C(c2c(C)cc(C)cc2C)C1=O (stereo not shown) [1-104]					5 (Herbicidal ratio of 90% or more (almost completely withered))	4 (Herbicidal ratio of 70% or higher and lower than 90%)	0 (Herbicidal ratio of 5% or lower (almost no effect))				0 (Herbicidal ratio of 5% or lower (almost no effect))	0 (Herbicidal ratio of 5% or lower (almost no effect))	5 (Herbicidal ratio of 90% or more (almost completely withered))	5 (Herbicidal ratio of 90% or more (almost completely withered))	5 (Herbicidal ratio of 90% or more (almost completely withered))	1 (Herbicidal ratio of 5% or higher and lower than 20%)	0 (Herbicidal ratio of 5% or lower (almost no effect))	1 (Herbicidal ratio of 5% or higher and lower than 20%)	4 (Herbicidal ratio of 70% or higher and lower than 90%)	5 (Herbicidal ratio of 90% or more (almost completely withered))	Herbicidal effect grade, C: Monochoria vaginalis (Monochoria vaginalis [5]): 1 (Herbicidal ratio of 5% or higher and lower than 20%); f: beet, effect grade on crop (beet [6]): 0 (Herbicidal ratio of 5% or lower (almost no effect)); K: Lolium multiflorum Lam., herbicidal effect (criteria 0-5) (Lolium multiflorum Lam.): 5 (Herbicidal ratio of 90% or more (almost completely withered))
CC(CC1CC(O)=C(c2c(C)cc(C)cc2C)C1=O)=NOCC1CC1(F)F (stereo not shown) [1-109]					5 (Herbicidal ratio of 90% or more (almost completely withered))	5 (Herbicidal ratio of 90% or more (almost completely withered))	2 (Herbicidal ratio of 20% or higher and lower than 40%)				0 (Herbicidal ratio of 5% or lower (almost no effect))	0 (Herbicidal ratio of 5% or lower (almost no effect))	5 (Herbicidal ratio of 90% or more (almost completely withered))	5 (Herbicidal ratio of 90% or more (almost completely withered))	5 (Herbicidal ratio of 90% or more (almost completely withered))	2 (Herbicidal ratio of 20% or higher and lower than 40%)	0 (Herbicidal ratio of 5% or lower (almost no effect))	1 (Herbicidal ratio of 5% or higher and lower than 20%)	4 (Herbicidal ratio of 70% or higher and lower than 90%)	5 (Herbicidal ratio of 90% or more (almost completely withered))	Herbicidal effect grade, C: Monochoria vaginalis (Monochoria vaginalis [5]): 3 (Herbicidal ratio of 40% or higher and lower than 70%); f: beet, effect grade on crop (beet [6]): 0 (Herbicidal ratio of 5% or lower (almost no effect)); K: Lolium multiflorum Lam., herbicidal effect (criteria 0-5) (Lolium multiflorum Lam.): 5 (Herbicidal ratio of 90% or more (almost completely withered))
